From US20260295053A1, “COMPOUNDS FOR DEGRADATION AND INHIBITION OF KRAS (G12D) PROTEIN” (Shenzhen Ionova Life Science Co., Ltd., priority 2023, published 2026)

Columns and labels:
KRAS (G12D) = biological target: T1, KRAS (G12D) (Homo sapiens, UniProt P01116, G12D); assay: KRAS (G12D) cellular degradation assay in AsPC-1 cells; type: cell-based; conditions: 24 hours, antibody fluorescence (Odyssey CLX), DC50 half-maximal degradation concentration
T1 construct: in-cell western with KRAS G12D antibody after 24 h
Outline: (§1)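 AsPC-1 cells were seeded at 22,000/well for degradation and 3,500/well for proliferation. Compounds in 1:3 dilutions ([…] to 1.5 nM final) ran 24 h for degradation, read by in-cell immunofluorescence of KRAS G12D normalised to β-actin, and 6 days for proliferation (CellTiter Glo luminescence). DC50/IC50 came from dose-response fits.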

AsPC-1 cells = assay: AsPC-1 cell proliferation assay (CellTiter Glo); type: cell-based; conditions: Homo sapiens, ASPC1, 144 h, 6 days
Outline: as §1

T1 sequence (P01116 1-188 isoform P01116-2 G12D): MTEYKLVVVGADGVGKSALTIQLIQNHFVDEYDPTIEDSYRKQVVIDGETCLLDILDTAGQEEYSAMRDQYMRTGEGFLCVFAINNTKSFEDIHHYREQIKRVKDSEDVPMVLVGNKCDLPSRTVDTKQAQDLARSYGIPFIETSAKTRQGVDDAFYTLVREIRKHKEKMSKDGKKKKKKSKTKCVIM

Row | Compound | DC50 (KRAS (G12D)) | IC50 (AsPC-1 cells)
1 | CCn1nccc1-c1ccc([C@H](CO)NC(=O)[C@@H]2C[C@@H](O)CN2C(=O)[C@H](C(C)C)n2cc(-c3ccc(COc4c(-c5c(C)c(F)cc6[nH]ncc56)c(C5CC5)cc5c(N6C[C@@H]7C[C@H]6CN7)nc(OC[C@H](C)OC)nc45)cc3C)nn2)cc1 [Example 44, (2S,4R)-1-((2S)-2-(4-(4-(((4-((1S,4S)-2,5-diazabicyclo[2.2.1]heptan-2-yl)-6-cyclopropyl-7-(6-fluoro-5-methyl-1H-indazol-4-yl)-2-((S)-2-methoxypropoxy)quinazolin-8-yl)oxy)methyl)-2-methylphenyl)-1H-1,2,3-triazol-1-yl)-3-methylbutanoyl)-N—((R)-1-(4-(1-ethyl-1H-pyrazol-5-yl)phenyl)-2-hydroxyethyl)-4-hydroxypyrrolidine-2-carboxamide] | < 10 nM | < 10 nM
2 | CCn1nccc1-c1ccc([C@H](CO)NC(=O)[C@@H]2C[C@@H](O)CN2C(=O)[C@H](C(C)C)n2cc(-c3ccc(COc4c(-c5c(C)c(F)cc6[nH]ncc56)c(C5CC5)cc5c(N6C[C@@H]7C[C@H]6CN7)nc(OC[C@H](C)OC)nc45)cc3OC)nn2)cc1 [Example 45, (2S,4R)-1-((2S)-2-(4-(4-(((4-((1S,4S)-2,5-diazabicyclo[2.2.1]heptan-2-yl)-6-cyclopropyl-7-(6-fluoro-5-methyl-1H-indazol-4-yl)-2-((S)-2-methoxypropoxy)quinazolin-8-yl)oxy)methyl)-2-methoxyphenyl)-1H-1,2,3-triazol-1-yl)-3-methylbutanoyl)-N—((R)-1-(4-(1-ethyl-1H-pyrazol-5-yl)phenyl)-2-hydroxyethyl)-4-hydroxypyrrolidine-2-carboxamide] | 10 to 100 nM | 10 to 100 nM
3 | CCc1ncccc1C#C[C@H](CO)NC(=O)[C@@H]1C[C@@H](O)CN1C(=O)[C@H](C(C)C)n1cc(-c2ccc(COc3c(-c4c(C)c(F)cc5[nH]ncc45)c(C4CC4)cc4c(N5C[C@@H]6C[C@H]5CN6)nc(OC[C@H](C)OC)nc34)cc2)nn1 [Example 46, (2S,4R)-1-((2S)-2-(4-(4-(((4-((1S,4S)-2,5-diazabicyclo[2.2.1]heptan-2-yl)-6-cyclopropyl-7-(6-fluoro-5-methyl-1H-indazol-4-yl)-2-((S)-2-methoxypropoxy)quinazolin-8-yl)oxy)methyl)phenyl)-1H-1,2,3-triazol-1-yl)-3-methylbutanoyl)-N—((R)-4-(2-ethylpyridin-3-yl)-1-hydroxybut-3-yn-2-yl)-4-hydroxypyrrolidine-2-carboxamide] | 10 to 100 nM | < 10 nM
4 | CCn1nccc1-c1ccc([C@H](CO)NC(=O)[C@@H]2C[C@@H](O)CN2C(=O)[C@H](C(C)C)n2cc(-c3ccc(COc4c(-c5c(C)c(F)cc6[nH]ncc56)c(C5CC5)cc5c(N6C[C@@H]7C[C@H]6CN7)nc(OCC(F)(F)COC)nc45)cc3)nn2)cc1 [Example 47, (2S,4R)-1-((2S)-2-(4-(4-(((4-((1S,4S)-2,5-diazabicyclo[2.2.1]heptan-2-yl)-6-cyclopropyl-2-(2,2-difluoro-3-methoxypropoxy)-7-(6-fluoro-5-methyl-1H-indazol-4-yl)quinazolin-8-yl)oxy)methyl)phenyl)-1H-1,2,3-triazol-1-yl)-3-methylbutanoyl)-N—((R)-1-(4-(1-ethyl-1H-pyrazol-5-yl)phenyl)-2-hydroxyethyl)-4-hydroxypyrrolidine-2-carboxamide] | < 10 nM | < 10 nM
